What was measured:
[1] = system: Bacteroides and Erysipelotrichaceae microbes; assay: Growth curve of bacteria in the presence of bile acids (OD600); type: cell-based; settings: 500 μM bile acid, DMSO control; 2 Bacteroides, 7 Erysipelotrichaceae
Method: Bacteroides (Bacteroides fragilis 3112 (Bac1) and Bacteroides vulgatus ATCC 8482 (Bac2)) and Erysipelotrichaceae (Clostridium ramosum ATCC 25554 (Ery1), Erysipelatoclostridium ramosum strain 113-1 (Ery2), Clostridium ramosum DSM 24812 (Ery3), Clostridium ramosum DSM 1402 (Ery4), HM-173 Clostridium innocuum 6_1_30 (Ery5), Clostridium innocuum DSM 22910 (Ery6) and Holdemania filiformis DSM 12042 (Ery7)) were streaked from a glycerol stock onto TSAB agar plates and incubated anaerobically for ˜ 24 h at 37° C. Three colonies were inoculated into 1 ml of Mega broth and were anaerobically cultured for overnight at 37° C. Cells were diluted 1,000-fold into Mega broth to reach late-log phase. Then 5 μL of the culture was resuspended in 145 μL broth, loaded into a 96-well plated, and incubated anaerobically at 37° C. in Multiskan Sky Microplate Spectrophotometer (Thermo Fisher Scientific). Four bile acids (CA, 7-oxoCA, DCA, and 3-oxoDCA, 500 μM each) were tested with their solvent DMSO as control. Optical densities at 600 nm (OD600) were recorded every 60 min until the cultures reached the stationary phase. Bacterial growth curves were performed in triplicate with each biological replicate deriving from a single colony.

[2] = system: Erysipelotrichaceae microbes; type: cell-based; settings: in vitro consortium of 2 Bacteroides and 7 Erysipelotrichaceae; DCA at 0, 250 and 500 μM
[3] = SPF mice; drinking water with thiamphenicol 15 μg/ml and erythromycin 10 μg/ml
[4] = system: Bacteroidia (Prevotella and Bacteroides) microbes; assay: Antibiotics test of Gram-negative Bacteroidia strains on agar plates; type: cell-based; settings: 66 Bacteroidia strains; TSAB plates with 15 μg/mL thiamphenicol (or MICs)

SMILES | resistance of Erysipelotrichaceae microbes versus Bacteroides microbes (growth curve) [1] | expansion of Erysipelotrichaceae microbes (relative fold change by qPCR) [2] | accumulation of supplemented antibiotic in the feces [3] [pmol/mg] | resistance against thiamphenicol [4]
C[C@H](CCC(=O)O)[C@H]1CC[C@H]2[C@@H]3CC[C@@H]4CC(=O)CC[C@]4(C)[C@H]3C[C@H](O)[C@]12C [3-oxo DCA] | more resistant | – | – | –
C[C@H](CCC(=O)O)[C@H]1CC[C@H]2[C@@H]3CC[C@@H]4C[C@H](O)CC[C@]4(C)[C@H]3C[C@H](O)[C@]12C [DCA, deoxycholic acid] | more resistant | drives expansion | – | –
CS(=O)(=O)c1ccc([C@@H](O)[C@@H](CO)NC(=O)C(Cl)Cl)cc1 [thiamphenicol] | – | – | ~5 | not resistant

Source: patent US20250034579A1, “METHODS AND COMPOSITIONS FOR GENETICALLY MODIFYING HUMAN GUT MICROBES” (Cornell University, priority 2021, published 2025)
